pIC50: −log10 of the molar value. Values after ≈ are worked out from the molar mass of the structure shown.
How the values were obtained:
[1] = test system: Bacillus subtilis ATCC 6633; assay: In-vitro antibacterial activity (MIC, broth microdilution); format: cell-based; conditions: ATCC6633
Method: (§1) Determination of the antibacterial activities was carried out on microtiter plates, in 200 µL (final volume) of Müeller-Hinton Broth (MHB), following EUCAST (European Committee on Antimicrobial Susceptibility testing)/CLSI (Clinical and Laboratory Standard Institute) recommended procedures, [25]. The compounds were solubilized in MHB, just before use. Inocula were prepared for each strain by resuspending isolated colonies from 18 h cultured plates. Equivalents of 0.5 Mac Farland turbidity standards (approximately 1×10^8 CFU mL^−1) were prepared in saline solution ([…]) and then diluted 200-fold in MBH.

[2] = test system: Citrobacter freundii ATCC 8090; assay: as above; format: cell-based; conditions: ATCC8090
Method: as §1

[3] = test system: Enterococcus faecalis ATCC 29212; assay: as above; format: cell-based; conditions: ATCC29212
Method: as §1

[4] = test system: Enterococcus faecalis ATCC 7937; assay: as above; format: cell-based; conditions: ATCC7937
Method: as §1

[5] = test system: Enterococcus faecium ATCC 19434; assay: as above; format: cell-based; conditions: ATCC19434
Method: as §1

[6] = test system: Enterococcus hirae ATCC 8790; assay: as above; format: cell-based; conditions: ATCC8790
Method: as §1

[7] = test system: Escherichia coli ATCC 8739; assay: as above; format: cell-based; conditions: ATCC8739
Method: as §1

[8] = test system: Klebsiella pneumoniae ATCC 13883; assay: as above; format: cell-based; conditions: ATCC13883
Method: as §1

[9] = test system: Listeria innocua ATCC 33090; assay: as above; format: cell-based; conditions: ATCC33090
Method: as §1

[10] = test system: Listeria monocytogenes ATCC 14780; assay: as above; format: cell-based; conditions: ATCC14780
Method: as §1

[11] = test system: Micrococcus luteus ATCC 9341; assay: as above; format: cell-based; conditions: ATCC9341
Method: as §1

[12] = test system: Proteus mirabilis ATCC 29936; assay: as above; format: cell-based; conditions: ATCC29936
Method: as §1

[13] = test system: Pseudomonas aeruginosa ATCC 27853; assay: as above; format: cell-based; conditions: ATCC27853
Method: as §1

[14] = test system: Staphylococcus aureus ATCC 25923; assay: as above; format: cell-based; conditions: ATCC25923
Method: as §1

[15] = test system: Staphylococcus aureus ATCC 43300 (MRSA); assay: as above; format: cell-based
Method: as §1

[16] = test system: Staphylococcus aureus mp 1 (inducible MRSA); assay: as above; format: cell-based
Method: as §1

[17] = test system: Staphylococcus epidermidis ATCC 12228; assay: as above; format: cell-based; conditions: ATCC12228
Method: as §1

[18] = test system: Streptococcus pneumoniae ATCC 33400; assay: as above; format: cell-based; conditions: ATCC33400
Method: as §1

[19] = test system: Streptococcus pneumoniae ATCC 49619; assay: as above; format: cell-based; conditions: ATCC49619
Method: as §1

[20] = test system: Streptococcus pneumoniae D39; assay: as above; format: cell-based
Method: as §1

PBP2a = biological target: T1, PBP2a (Staphylococcus aureus, UniProt P07944); assay: PBP2a enzymatic inhibition assay (fluorescein-labeled ampicillin, residual penicillin binding activity); format: biochemical, Staphylococcus aureus ATCC 43300; conditions: for remaining activity at 1000 µM: 4 h, residual activity of the enzyme at 1 mM inhibitor, 0.01% Triton X-100, mean of three experiments, read-out: PBP2a RA [%]; for pIC50: in the presence of 0.01% Triton X-100
T1 construct: made in house
Method: (§2) PBP2a from Staphylococcus aureus ATCC 43300 and PBP5fm from Enterococcus faecium D63r were overproduced and purified as described previously, [18].
(§3) Each of the purified PBPs (2.5 µM) were first incubated with 1 mM potential inhibitor in 100 mM phosphate buffer, 0.01% Triton X-100[19], pH 7, for 4 h at 30°C. Then, 25 µM fluorescein-labeled ampicillin[20] was added to detect the residual penicillin binding activity (RA). The samples were further incubated for 30 min at 37°C in a total volume of 20 µL. Denaturation buffer was added (0.1 M Tris/HCl, pH 6.8, containing 25% glycerol, 2% SDS, 20% β-mercaptoethanol and 0.02% bromophenol blue) and the samples were heated to 100°C for 1 min. The samples were then loaded onto a 10% SDS-acrilamide gel (10×7 cm) and electrophoresis was performed for 45 min at 180 V (12 mA). Detection and quantification of the RAs were with Molecular Image FX equipment and Quantity One software (BioRad, Hercules, CA, USA). Three independent experiments were carried out for each inhibitor.

PBP2x 5204 = PBP2x 5204 (Streptococcus pneumoniae, UniProt P59676); assay: PBP2x 5204 enzymatic inhibition assay (S2d hydrolysis, DTNB); format: biochemical, Streptococcus pneumoniae strain 5204; conditions: for PBP2x5204 RA [%]: 240 min
Method: PBP2x-5204 from Streptococcus pneumonia and N-benzoyl-D-alanyl-thioglycolate S2d[21], [22] were prepared as previously described. All assays with PBP2x 5204 were carried out in 96-well microtiter plates (Brand, Wertheim, Germany). PBP2x 5204 (0.6 µM) was incubated in the presence of the potential inhibitors in 10 mM sodium phosphate buffer (pH 7.0) containing 70 mM D-alanine and 0.01 mg/mL BSA, for 4 h at 25°C. This preincubation was used to also detect slow binding inhibitors. After the preincubation, the RA of PBP2x 5204 was determined. The initial rate of hydrolysis of 1 mM S2d in the presence of 1 mM DTNB was determined by monitoring the increase in absorbance at 412 nm (DTNB: ε[Δ ε] = […]) using a microplate absorbance reader (Power Wave X, Biotek Instruments, Winooski, U.S.A.). The rate of spontaneous hydrolysis of S2d in the presence of the potential inhibitors was also determined in the absence of PBP2x 5204. All of the assays were carried out in triplicate. The determination of the RA of PBP2x 5204 in the absence of inhibitors was carried out six times on each plate. A test compound was considered as an inhibitor if the RA was <80%. In this case, to reveal false positives, the assays were also carried out under the same conditions in the presence of 0.01% Triton X-100. As described in the literature, promiscuous inhibitors (false positives) are slow binding, noncompetitive inhibitors. To avoid detailed kinetic investigations, it is possible to identify such compounds by carrying out the assays in the presence of Triton X-100[14], [19]. Promiscuous inhibitors show no inhibition in the presence of Triton X-100. The IC50 values in the presence of Triton X-100 were determined if the RAs were <50%. (RA: ∼50%, IC50∼c, c: concentration of compound in the assay; RA >50%, IC50 > c). The RA was measured over a range of concentrations, from which the IC50 values were determined by non-linear regression analysis, using Sigma Plot (Systat software) and fitting the data to the equation y = y0+(a×b)/(b+x)[23].

PBP5fm = PBP5fm (Enterococcus faecium, UniProt Q47759); assay: PBP5fm enzymatic inhibition assay (fluorescein-labeled ampicillin, residual penicillin binding activity); format: biochemical, Enterococcus faecium D63r; conditions: 4 h; residual activity of the enzyme at 1 mM inhibitor; 0.01% Triton X-100; read-out: PBP5fm RA [%]
Method: as §2, §3

[21] = residual activity of the enzyme at 1 mM inhibitor

Sequence of PBP5fm (Q47759 entry or part of it): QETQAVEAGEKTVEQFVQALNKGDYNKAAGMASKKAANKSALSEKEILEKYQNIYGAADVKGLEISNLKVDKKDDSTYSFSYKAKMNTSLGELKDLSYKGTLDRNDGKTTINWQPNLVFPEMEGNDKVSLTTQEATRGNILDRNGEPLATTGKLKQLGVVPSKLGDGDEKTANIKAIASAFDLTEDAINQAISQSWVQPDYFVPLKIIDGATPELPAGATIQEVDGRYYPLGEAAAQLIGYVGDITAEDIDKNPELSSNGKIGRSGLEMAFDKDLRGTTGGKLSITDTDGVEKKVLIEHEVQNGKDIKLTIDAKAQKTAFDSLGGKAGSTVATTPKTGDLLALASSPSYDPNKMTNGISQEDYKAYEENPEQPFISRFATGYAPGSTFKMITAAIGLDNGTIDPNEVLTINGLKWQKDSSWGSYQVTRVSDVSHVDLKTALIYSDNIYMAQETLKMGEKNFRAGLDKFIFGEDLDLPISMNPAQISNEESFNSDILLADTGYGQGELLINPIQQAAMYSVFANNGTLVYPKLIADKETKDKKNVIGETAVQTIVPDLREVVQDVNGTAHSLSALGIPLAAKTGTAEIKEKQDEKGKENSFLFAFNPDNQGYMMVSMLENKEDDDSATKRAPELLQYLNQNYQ
Sequence of PBP2x 5204 (P59676 49-750): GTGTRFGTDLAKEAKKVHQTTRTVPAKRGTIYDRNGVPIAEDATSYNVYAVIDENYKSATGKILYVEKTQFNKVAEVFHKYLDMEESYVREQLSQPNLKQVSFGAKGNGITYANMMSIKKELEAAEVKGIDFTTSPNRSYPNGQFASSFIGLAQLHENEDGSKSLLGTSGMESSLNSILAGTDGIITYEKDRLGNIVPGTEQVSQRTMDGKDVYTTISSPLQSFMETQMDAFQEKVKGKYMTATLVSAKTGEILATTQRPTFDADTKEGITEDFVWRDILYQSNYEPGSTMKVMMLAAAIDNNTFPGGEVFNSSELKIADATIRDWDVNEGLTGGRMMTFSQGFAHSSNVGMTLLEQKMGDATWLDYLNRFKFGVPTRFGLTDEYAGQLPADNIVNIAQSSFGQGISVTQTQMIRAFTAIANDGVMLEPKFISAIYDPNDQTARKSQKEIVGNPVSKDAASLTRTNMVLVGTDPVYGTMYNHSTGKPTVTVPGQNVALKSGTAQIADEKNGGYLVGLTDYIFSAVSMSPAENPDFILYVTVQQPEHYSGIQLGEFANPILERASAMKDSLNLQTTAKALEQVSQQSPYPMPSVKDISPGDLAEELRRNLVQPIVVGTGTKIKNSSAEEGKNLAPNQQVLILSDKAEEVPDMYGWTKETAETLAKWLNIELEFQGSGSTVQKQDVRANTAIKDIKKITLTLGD
T1 sequence (P07944 whole entry): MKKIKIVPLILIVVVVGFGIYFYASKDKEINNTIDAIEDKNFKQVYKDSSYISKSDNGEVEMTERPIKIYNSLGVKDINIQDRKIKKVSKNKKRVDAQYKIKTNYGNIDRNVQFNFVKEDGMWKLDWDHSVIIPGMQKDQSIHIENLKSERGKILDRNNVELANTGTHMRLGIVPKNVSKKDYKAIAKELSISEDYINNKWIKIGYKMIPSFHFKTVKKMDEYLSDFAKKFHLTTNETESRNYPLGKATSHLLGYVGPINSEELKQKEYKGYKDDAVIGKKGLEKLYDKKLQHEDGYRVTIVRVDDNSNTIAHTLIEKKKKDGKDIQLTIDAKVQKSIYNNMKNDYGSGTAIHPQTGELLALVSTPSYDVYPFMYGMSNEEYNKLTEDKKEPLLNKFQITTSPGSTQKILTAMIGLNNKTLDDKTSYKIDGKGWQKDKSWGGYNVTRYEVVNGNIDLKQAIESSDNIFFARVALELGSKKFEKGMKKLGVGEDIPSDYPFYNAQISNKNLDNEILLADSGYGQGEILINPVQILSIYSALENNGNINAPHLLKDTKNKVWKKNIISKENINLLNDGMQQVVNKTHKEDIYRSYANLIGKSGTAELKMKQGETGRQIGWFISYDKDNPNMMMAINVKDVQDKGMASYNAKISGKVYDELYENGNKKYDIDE

| SMILES | MIC [1] [mg/L] | MIC [2] [mg/L] | MIC [3] [mg/L] | MIC [4] [mg/L] | MIC [5] [mg/L] | MIC [6] [mg/L] | MIC [7] [mg/L] | MIC [8] [mg/L] | MIC [9] [mg/L] | MIC [10] [mg/L] | MIC [11] [mg/L] | MIC [12] [mg/L] | MIC [13] [mg/L] | MIC [14] [mg/L] | MIC [15] [mg/L] | MIC [16] [mg/L] | MIC [17] [mg/L] | remaining activity at 1000 µM (PBP2a) [%] | PBP2x5204 RA [%] (PBP2x 5204; [21]) | activity at 1000 µM (PBP5fm) [%] | further results |
| --- | --- | --- | --- | --- | --- | --- | --- | --- | --- | --- | --- | --- | --- | --- | --- | --- | --- | --- | --- | --- | --- |
| CC1(C)S[C@@H]2[C@H](NC(=O)[C@H](N)c3ccccc3)C(=O)N2[C@H]1C(=O)O [Ampicillin, reference compound] | 0.5 (≈ 1.43 µM) | 128 (≈ 366 µM) | 2 (≈ 5.72 µM) | 2 (≈ 5.72 µM) | 64 (≈ 183 µM) | 64 (≈ 183 µM) | 4 (≈ 11.4 µM) | 256 (≈ 733 µM) | 0.25 (≈ 0.715 µM) | 0.5 (≈ 1.43 µM) | 0.5 (≈ 1.43 µM) | 2 (≈ 5.72 µM) | > 1020 | 0.25 (≈ 0.715 µM) | 1020 (≈ 2930 µM) | 1020 (≈ 2930 µM) | 16 (≈ 45.8 µM) | – | – | – | MIC [18]: 0.03 mg/L (≈ 0.0859 µM); MIC [19]: 0.06 mg/L (≈ 0.172 µM); MIC [20]: 0.06 mg/L (≈ 0.172 µM) |
| O=S(=O)(Nc1ccc(O)cc1)c1cccc2cccnc12 [compound 3, N-(4-Hydroxyphenyl)quinoline-8-sulfonamide] | – | – | – | – | – | – | – | – | – | – | – | – | – | – | – | – | – | 67 | 80 | 65 | – |
| CCOc1ccc(NS(=O)(=O)c2ccc(C(=O)O)cc2)cc1 [compound 4, 4-(N-(4-Ethoxyphenyl)sulfamoyl)benzoic acid] | – | – | – | – | – | – | – | – | – | – | – | – | – | – | – | – | – | 83 | 101 | 100 | – |
| CCOc1ccc(S(=O)(=O)Nc2ccc(C(=O)O)cc2)cc1 [compound 5, 4-(4-Ethoxyphenylsulfonamido)benzoic acid] | – | – | – | – | – | – | – | – | – | – | – | – | – | – | – | – | – | 86 | 81 | 73 | – |
| CCCOc1ccc(C(=O)Nc2ccc(Br)cc2C(=O)O)cc1 [compound 6, 5-Bromo-2-(4-propoxybenzamido)benzoic acid] | 128 (≈ 338 µM) | > 512 | 32 (≈ 84.6 µM) | 64 (≈ 169 µM) | 256 (≈ 677 µM) | 32 (≈ 84.6 µM) | > 512 | > 512 | 64 (≈ 169 µM) | 64 (≈ 169 µM) | 32 (≈ 84.6 µM) | > 512 | > 512 | 16 (≈ 42.3 µM) | 128 (≈ 338 µM) | 128 (≈ 338 µM) | 16 (≈ 42.3 µM) | 0 | 41 | 68 | pIC50 (PBP2a): 3.68; MIC [18]: 64 mg/L (≈ 169 µM); MIC [19]: 32 mg/L (≈ 84.6 µM); MIC [20]: 16 mg/L (≈ 42.3 µM) |
| CCCOc1ccc(C(=O)Nc2ccc(O)cc2C(=O)O)cc1 [compound 7, 5-Hydroxy-2-(4-propoxybenzamido)benzoic acid] | – | – | – | – | – | – | – | – | – | – | – | – | – | – | – | – | – | 74 | 65 | 72 | – |
| CCCOc1ccc(C(=O)Nc2ccccc2C(=O)O)cc1 [compound 8, 2-(4-Propoxybenzamido)benzoic acid] | – | – | – | – | – | – | – | – | – | – | – | – | – | – | – | – | – | 60 | 103 | 74 | – |
| CCCOc1cccc(C(=O)Nc2ccc(Br)cc2C(=O)O)c1 [compound 9, 5-Bromo-2-(3-propoxybenzamido)benzoic acid] | 32 (≈ 84.6 µM) | > 512 | 64 (≈ 169 µM) | 64 (≈ 169 µM) | 16 (≈ 42.3 µM) | 16 (≈ 42.3 µM) | > 512 | > 512 | 16 (≈ 42.3 µM) | 16 (≈ 42.3 µM) | 16 (≈ 42.3 µM) | > 512 | > 512 | 32 (≈ 84.6 µM) | 32 (≈ 84.6 µM) | 32 (≈ 84.6 µM) | 8 (≈ 21.2 µM) | 0 | – | 72 | pIC50 (PBP2a): 3.64; pIC50 (PBP2x 5204; read-out: PBP2x5204 IC50, in the presence of 0.01% Triton X-100): 3.81; PBP2x5204 RA [%] (PBP2x 5204; residual activity of the enzyme at 500 µM inhibitor): 8%; MIC [18]: 1 mg/L (≈ 2.64 µM); MIC [19]: 1 mg/L (≈ 2.64 µM); MIC [20]: 1 mg/L (≈ 2.64 µM) |
| CCCOc1cccc(C(=O)Nc2ccc(O)cc2C(=O)O)c1 [compound 11, 5-Hydroxy-2-(3-propoxybenzamido)benzoic acid] | – | – | – | – | – | – | – | – | – | – | – | – | – | – | – | – | – | 70 | 118 | 61 | – |
